The values below come from ChEMBL document CHEMBL1208672, “Novel 8-arylated purines as inhibitors of glycogen synthase kinase” (Eur J Med Chem, 2010).

Test [1] deals with Glycogen synthase kinase-3 alpha (Homo sapiens) (UniProt P49840). Briefly: Inhibition of human GSK3alpha assessed as residual activity at 1 uM relative to control.
The target in test [2] is T1, Cyclin-dependent kinase 5/CDK5 activator 1 (Homo sapiens) (UniProt Q00535+Q15078). Description: Inhibition of CDK5/p25 assessed as residual activity at 1 uM relative to control. It is filed as protein-complex assay.
The target of test [3] is T2, Glycogen synthase kinase-3 beta (Homo sapiens, UniProt P49841).
Target sequence in this assay (P49841 whole entry): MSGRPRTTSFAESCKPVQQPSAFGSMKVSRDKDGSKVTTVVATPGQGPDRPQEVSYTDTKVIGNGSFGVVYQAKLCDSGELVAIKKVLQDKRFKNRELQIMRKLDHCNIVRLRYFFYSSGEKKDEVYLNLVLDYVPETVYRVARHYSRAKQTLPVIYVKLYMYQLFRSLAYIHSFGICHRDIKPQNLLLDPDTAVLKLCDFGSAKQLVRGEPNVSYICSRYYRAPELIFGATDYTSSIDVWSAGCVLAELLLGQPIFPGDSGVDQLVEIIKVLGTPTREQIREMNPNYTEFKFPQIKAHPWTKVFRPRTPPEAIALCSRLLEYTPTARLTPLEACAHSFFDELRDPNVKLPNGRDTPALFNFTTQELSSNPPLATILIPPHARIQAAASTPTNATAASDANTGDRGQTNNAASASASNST
Test [4] deals with Epidermal growth factor receptor (Homo sapiens) (UniProt P00533). Briefly: Inhibition of EGFR assessed as residual activity at 10 uM relative to control.
In test [5] the target is Casein kinase I isoform alpha (Homo sapiens) (UniProt P48729). Description: Inhibition of CK1alpha1 assessed as residual activity at 10 uM relative to control.
For test [6], the target named is MAP kinase-activated protein kinase 2 (Homo sapiens) (UniProt P49137). Description: Inhibition of MAPKAPK2 assessed as residual activity at 10 uM relative to control.
Test [7] deals with T1, Cyclin-dependent kinase 5/CDK5 activator 1 (Homo sapiens). Briefly: Inhibition of CDK5/p25 assessed as residual activity at 10 uM relative to control. Format: protein-complex assay.
Test [8] has as its target Mitogen-activated protein kinase 3 (Homo sapiens) (UniProt P27361). Description: Inhibition of ERK1 at 10 uM relative to control. Also on record: scale not given: the % may be the effect or the level left.
Test [9] deals with Insulin-like growth factor 1 receptor (Homo sapiens) (UniProt P08069). Briefly: Inhibition of IGF1R assessed as residual activity at 10 uM relative to control.
Test [10] concerns the target Mitogen-activated protein kinase 8 (Homo sapiens) (UniProt P45983). Briefly: Inhibition of JNK1 assessed as residual activity at 10 uM relative to control.
Test [11] addresses T3, Tyrosine-protein kinase receptor TYRO3 (Homo sapiens) (UniProt Q06418).
T3 sequence (whole entry): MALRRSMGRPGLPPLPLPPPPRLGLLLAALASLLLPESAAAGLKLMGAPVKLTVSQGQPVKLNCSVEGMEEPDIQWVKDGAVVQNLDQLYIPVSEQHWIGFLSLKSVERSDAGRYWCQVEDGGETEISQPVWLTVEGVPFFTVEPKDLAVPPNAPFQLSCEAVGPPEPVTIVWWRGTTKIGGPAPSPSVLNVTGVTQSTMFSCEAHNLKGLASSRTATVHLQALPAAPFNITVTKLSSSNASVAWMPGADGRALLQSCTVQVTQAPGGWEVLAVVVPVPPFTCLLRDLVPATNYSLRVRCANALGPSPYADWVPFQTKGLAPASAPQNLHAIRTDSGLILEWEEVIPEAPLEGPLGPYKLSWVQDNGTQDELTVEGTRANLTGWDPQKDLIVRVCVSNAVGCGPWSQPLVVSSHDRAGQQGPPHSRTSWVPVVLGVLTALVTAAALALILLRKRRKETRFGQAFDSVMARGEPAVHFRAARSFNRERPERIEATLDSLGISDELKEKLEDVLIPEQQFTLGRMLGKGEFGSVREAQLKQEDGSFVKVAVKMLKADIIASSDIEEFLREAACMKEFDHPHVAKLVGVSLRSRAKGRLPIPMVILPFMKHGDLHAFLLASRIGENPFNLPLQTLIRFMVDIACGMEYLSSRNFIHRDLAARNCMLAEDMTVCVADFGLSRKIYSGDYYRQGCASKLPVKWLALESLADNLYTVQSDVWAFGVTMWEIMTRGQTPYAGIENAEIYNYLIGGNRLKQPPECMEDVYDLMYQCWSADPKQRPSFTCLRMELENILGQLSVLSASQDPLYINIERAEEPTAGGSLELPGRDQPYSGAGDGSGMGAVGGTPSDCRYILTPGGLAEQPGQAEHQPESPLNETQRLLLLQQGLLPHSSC
Briefly: Inhibition of TYRO3/SKY assessed as residual activity at 10 uM relative to control.

In test [12] the target is T2, Glycogen synthase kinase-3 beta. Briefly: Inhibition of human GSK3-beta assessed as residual activity at 10 uM relative to control.
Target sequence in this assay (P49841 whole entry, looked up): as the sequence (P49841 whole entry) above
Test [13] deals with Casein kinase II subunit alpha (Homo sapiens) (UniProt P68400). Description: Inhibition of CK2alpha assessed as residual activity at 10 uM relative to control.

Chain of Glycogen synthase kinase-3 alpha (Homo sapiens) (P49840 2-483 limits assumed): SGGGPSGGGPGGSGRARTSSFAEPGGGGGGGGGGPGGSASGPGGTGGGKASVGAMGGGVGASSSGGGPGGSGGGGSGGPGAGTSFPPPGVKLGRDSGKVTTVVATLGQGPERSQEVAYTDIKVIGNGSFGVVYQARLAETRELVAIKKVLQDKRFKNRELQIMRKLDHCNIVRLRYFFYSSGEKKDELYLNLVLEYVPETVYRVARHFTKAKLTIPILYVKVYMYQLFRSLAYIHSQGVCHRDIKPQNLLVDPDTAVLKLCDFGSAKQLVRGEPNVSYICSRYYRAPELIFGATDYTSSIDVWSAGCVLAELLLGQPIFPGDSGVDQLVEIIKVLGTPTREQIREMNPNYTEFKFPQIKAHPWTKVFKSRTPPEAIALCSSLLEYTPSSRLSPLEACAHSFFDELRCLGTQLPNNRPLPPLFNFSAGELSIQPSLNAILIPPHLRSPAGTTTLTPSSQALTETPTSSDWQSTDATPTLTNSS
T1 sequence (Q00535 whole entry): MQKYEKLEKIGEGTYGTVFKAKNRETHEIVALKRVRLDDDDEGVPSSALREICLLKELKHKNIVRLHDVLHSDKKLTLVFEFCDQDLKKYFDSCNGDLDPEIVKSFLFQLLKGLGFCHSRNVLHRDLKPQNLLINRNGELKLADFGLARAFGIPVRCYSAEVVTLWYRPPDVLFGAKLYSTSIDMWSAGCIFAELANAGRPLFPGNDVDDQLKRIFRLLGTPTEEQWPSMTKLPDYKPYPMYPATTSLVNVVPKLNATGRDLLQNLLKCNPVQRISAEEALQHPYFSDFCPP
T1 sequence (Q15078 99-307 partner limits assumed): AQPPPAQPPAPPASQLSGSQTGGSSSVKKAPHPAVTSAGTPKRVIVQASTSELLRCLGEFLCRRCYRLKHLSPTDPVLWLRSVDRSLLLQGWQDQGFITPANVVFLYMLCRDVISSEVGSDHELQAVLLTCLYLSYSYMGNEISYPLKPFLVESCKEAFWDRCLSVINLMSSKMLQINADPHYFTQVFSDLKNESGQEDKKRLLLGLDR
Chain of Mitogen-activated protein kinase 8 (Homo sapiens) (P45983 whole entry): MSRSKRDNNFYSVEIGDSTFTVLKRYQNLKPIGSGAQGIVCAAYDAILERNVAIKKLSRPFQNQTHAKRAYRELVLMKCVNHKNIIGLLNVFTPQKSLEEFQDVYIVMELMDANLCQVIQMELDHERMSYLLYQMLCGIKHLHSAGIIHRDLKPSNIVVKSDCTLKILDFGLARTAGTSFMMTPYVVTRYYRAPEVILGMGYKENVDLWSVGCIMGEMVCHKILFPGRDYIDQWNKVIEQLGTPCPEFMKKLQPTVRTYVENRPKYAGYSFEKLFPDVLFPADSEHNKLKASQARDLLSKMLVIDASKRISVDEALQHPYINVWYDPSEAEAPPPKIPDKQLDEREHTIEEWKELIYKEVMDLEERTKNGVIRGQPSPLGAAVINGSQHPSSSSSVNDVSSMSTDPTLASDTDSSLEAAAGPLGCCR
Chain of Mitogen-activated protein kinase 3 (Homo sapiens) (P27361 whole entry): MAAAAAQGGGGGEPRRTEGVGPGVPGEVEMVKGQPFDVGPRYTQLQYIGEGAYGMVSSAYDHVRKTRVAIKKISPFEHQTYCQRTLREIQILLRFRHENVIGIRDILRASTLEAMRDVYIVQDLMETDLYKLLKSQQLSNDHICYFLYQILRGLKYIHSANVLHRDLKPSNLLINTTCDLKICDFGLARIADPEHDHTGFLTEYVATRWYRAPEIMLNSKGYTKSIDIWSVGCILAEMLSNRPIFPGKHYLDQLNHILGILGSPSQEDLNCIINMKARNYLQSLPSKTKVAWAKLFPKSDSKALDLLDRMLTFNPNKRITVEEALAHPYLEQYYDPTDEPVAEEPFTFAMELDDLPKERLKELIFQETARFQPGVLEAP
Chain of Epidermal growth factor receptor (Homo sapiens) (P00533 whole entry, canonical isoform): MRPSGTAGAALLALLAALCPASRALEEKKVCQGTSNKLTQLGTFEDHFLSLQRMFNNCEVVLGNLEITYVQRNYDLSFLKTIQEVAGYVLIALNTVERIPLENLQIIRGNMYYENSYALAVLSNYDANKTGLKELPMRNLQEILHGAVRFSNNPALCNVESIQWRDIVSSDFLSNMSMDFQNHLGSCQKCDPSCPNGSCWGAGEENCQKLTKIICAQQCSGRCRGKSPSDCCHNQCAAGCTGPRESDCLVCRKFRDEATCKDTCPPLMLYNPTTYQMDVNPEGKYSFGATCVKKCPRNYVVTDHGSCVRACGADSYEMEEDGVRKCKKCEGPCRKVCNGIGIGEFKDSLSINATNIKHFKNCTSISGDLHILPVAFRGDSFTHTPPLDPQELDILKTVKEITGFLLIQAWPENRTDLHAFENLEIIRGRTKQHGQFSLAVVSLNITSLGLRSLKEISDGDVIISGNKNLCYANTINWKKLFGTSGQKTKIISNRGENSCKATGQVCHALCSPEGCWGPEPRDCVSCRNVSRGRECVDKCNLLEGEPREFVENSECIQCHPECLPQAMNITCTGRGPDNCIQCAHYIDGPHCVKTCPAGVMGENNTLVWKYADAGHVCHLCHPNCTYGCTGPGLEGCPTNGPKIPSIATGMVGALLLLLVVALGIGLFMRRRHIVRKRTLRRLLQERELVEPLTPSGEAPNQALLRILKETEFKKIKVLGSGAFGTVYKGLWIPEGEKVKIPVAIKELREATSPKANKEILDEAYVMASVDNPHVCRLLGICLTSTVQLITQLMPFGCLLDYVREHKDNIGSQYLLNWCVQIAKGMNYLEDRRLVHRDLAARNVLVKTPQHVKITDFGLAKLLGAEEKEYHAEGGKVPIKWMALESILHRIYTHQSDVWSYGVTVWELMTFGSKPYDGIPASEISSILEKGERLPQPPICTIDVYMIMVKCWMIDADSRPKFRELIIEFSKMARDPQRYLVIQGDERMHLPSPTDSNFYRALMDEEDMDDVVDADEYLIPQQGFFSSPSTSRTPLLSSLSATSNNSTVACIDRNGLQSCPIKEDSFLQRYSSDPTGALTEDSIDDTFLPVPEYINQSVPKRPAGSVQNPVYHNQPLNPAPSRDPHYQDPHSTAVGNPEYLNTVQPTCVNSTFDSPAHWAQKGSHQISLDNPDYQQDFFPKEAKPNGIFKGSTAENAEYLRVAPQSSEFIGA
Chain of Insulin-like growth factor 1 receptor (Homo sapiens) (P08069 31-736 limits assumed): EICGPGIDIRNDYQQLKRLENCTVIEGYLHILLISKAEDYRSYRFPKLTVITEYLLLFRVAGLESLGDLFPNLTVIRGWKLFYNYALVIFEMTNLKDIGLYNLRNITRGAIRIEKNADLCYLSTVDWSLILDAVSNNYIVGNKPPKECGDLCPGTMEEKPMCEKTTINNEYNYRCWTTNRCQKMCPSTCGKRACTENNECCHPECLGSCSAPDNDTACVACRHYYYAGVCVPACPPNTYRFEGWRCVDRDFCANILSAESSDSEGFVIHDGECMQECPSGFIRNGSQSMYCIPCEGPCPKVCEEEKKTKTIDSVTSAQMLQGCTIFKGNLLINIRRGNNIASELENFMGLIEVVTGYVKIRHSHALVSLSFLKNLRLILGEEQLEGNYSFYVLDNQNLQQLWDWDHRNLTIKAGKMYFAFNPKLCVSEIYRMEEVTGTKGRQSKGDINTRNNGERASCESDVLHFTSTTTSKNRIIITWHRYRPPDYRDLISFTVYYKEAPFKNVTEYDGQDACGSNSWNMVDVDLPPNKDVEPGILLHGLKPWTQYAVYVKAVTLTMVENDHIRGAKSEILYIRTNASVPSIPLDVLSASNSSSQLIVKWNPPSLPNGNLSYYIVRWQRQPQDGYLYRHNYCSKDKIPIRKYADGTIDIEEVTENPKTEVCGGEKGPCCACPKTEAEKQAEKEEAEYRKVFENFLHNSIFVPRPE
Chain of Insulin-like growth factor 1 receptor (Homo sapiens) (P08069 741-1367 limits assumed): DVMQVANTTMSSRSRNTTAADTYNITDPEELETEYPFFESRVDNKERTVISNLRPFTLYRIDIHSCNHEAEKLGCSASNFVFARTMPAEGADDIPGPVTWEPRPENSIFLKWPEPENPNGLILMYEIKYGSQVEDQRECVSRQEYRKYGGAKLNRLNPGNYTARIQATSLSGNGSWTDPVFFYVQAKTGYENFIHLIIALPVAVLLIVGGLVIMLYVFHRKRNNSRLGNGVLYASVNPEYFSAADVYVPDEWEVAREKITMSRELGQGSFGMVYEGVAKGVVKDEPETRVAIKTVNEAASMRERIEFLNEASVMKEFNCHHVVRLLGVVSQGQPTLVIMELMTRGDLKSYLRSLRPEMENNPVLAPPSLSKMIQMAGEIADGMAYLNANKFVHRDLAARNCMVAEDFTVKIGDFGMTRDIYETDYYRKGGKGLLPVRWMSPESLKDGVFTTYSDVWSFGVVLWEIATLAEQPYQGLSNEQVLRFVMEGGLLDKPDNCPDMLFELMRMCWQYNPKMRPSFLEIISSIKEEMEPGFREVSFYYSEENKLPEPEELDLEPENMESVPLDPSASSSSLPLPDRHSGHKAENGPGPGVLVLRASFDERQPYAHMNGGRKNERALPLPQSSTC

Take `O=C(Nc1ncnc2[nH]c(-c3cccc(Cl)c3)nc12)c1ccccc1`: the Activity in test [1] came to 60%; in test [2], 102%.

In the case of `c1ccc(Nc2ncnc3nc(-c4ccccc4)[nH]c23)cc1`, in test [3], the IC50 is 16 nM. For the compound `Cn1c(-c2ccc(Cl)cc2)nc2ncnc(N3CCCC3)c21`, the Activity in test [2] was 97%. The same measure, in the same setting: next, `c1cncc(-c2nc3c(N4CCCC4)ncnc3[nH]2)c1`: 100%. Take `CCCCC(=O)Nc1ncnc2[nH]c(/C=C/c3ccccc3)nc12`: the Activity was 55% in test [1] and 103% in test [2].

Take `CN[C@@H]1C[C@H]2O[C@@](C)([C@@H]1OC)n1c3ccccc3c3c4c(c5c6ccccc6n2c5c31)C(=O)NC4`: the Activity in test [2] was found to be 98.4%.

For `COc1ccc(CNc2ncnc3nc(-c4ccc(Cl)cc4)n(C)c23)cc1`, the Activity in test [2] is 105%. In the case of `N#Cc1cccc(-c2nc3ncnc(Nc4ccccc4)c3[nH]2)c1`, in [3], the IC50 is 26 nM.

For `O=C(Nc1ncnc2[nH]c(-c3ccccc3)nc12)c1ccccc1`, the figures for the Activity in [1] and in test [2] were 67% and 102%, respectively. The compound `CCCCC(=O)Nc1ncnc2nc(-c3cccc(C#N)c3)[nH]c12` had an IC50 in test [3] of 1220 nM. Take `c1ccc(CNc2ncnc3[nH]c(-c4ccccc4)nc23)cc1`: the Activity in test [2] turned out to be 84%. On the same count and under the same terms, to `c1cncc(CNc2ncnc3[nH]c(-c4cccnc4)nc23)c1` belongs 102%. For the compound `CC(C)C(=O)Nc1ncnc2[nH]c(-c3ccccc3)nc12`, in test [2], the Activity is 99%. The same measure, in the same setting: next, `O=C(Nc1ncnc2[nH]c(-c3ccccc3)nc12)C1CCCN1` (configuration not stated): 93%.

Consider `O=C(Nc1ncnc2[nH]c(/C=C/c3ccccc3)nc12)c1cccc(Br)c1`, for which the Activity is 92% in test [1] and 101% in test [2].

Turning to `COc1ccc(CNc2ncnc3c2nc(-c2ccccc2)n3C)cc1`, in test [2], the Activity was 100%.

As for `CCCCC(=O)Nc1ncnc2[nH]c(-c3ccc4ccccc4c3)nc12`, the Activity in test [1] amounted to 31%; in [2], 102%. The same compound showed an IC50 in [3] of more than 20000 nM. For `Cn1c(-c2ccc([N+](=O)[O-])cc2)nc2ncnc(N3CCCC3)c21`, in test [2], the Activity was 101%. As to `C(=C\c1nc2c(NCCN3CCOCC3)ncnc2[nH]1)/c1ccccc1`, the Activity in test [1] turned out to be 99%; in test [2] it was 101%.

As to `CC(=O)Nc1ncnc2[nH]c(-c3cccc(C#N)c3)nc12`, the values for the Activity in [1] and in test [2] were 79% and 103%, respectively. In the case of `Cn1c(-c2ccccc2)nc2c(NCc3cccnc3)ncnc21`, the Activity in [2] came to 99%.

As for `c1cncc(-c2nc3c(N4CCOCC4)ncnc3[nH]2)c1`, the Activity in [2] was found to be 71%. With `O=C(Nc1ncnc2[nH]c(-c3cccnc3)nc12)c1ccccc1`, the Activity in test [1] turned out to be 61%; in test [2] it was 102%. Turning to `O=C(Nc1ncnc2[nH]c(-c3ccc4ccccc4c3)nc12)C1CC1`, the Activity amounted to 91.6% in test [4]; 91.9% in test [5]; 101% in [6]; 91.4% in test [7]; 99.4% in [8]; 100% in test [9]. Also, the Activity in [2] was 101%; in test [10], 99.2%; in [11], 78.2%; in [12] it was 18.4%; in test [13] it was 59.5%.

`O=C(Nc1ncnc2nc(-c3ccc4ccccc4c3)[nH]c12)C1CC1` returned an IC50 in test [3] of 169 nM. As to `CCCCC(=O)Nc1ncnc2[nH]c(-c3cccc(C#N)c3)nc12`, the Activity was found to be 34% in test [1] and 101% in test [2].

Regarding `CC(C)CC(=O)Nc1ncnc2[nH]c(-c3ccccc3)nc12`, the Activity in test [2] is 102%. Still for that read-out and setting: to `COc1ccc(-c2nc3ncnc(NCc4ccccc4)c3n2C)cc1` belongs 102%.

As to `COc1ccc(C(=O)Nc2ncnc3[nH]c(-c4cccnc4)nc23)cc1`, the results for the Activity in test [1] and in [2] were 43% and 107%, respectively. Regarding `CCCCC(=O)Nc1ncnc2[nH]c(-c3ccccc3)nc12`, the Activity in test [2] came out at 103%.

Regarding `Cn1c(-c2ccc([N+](=O)[O-])cc2)nc2ncnc(NCc3ccccc3)c21`, in test [2], the Activity is 101%. As for `C(=C\c1nc2c(N3CCCC3)ncnc2[nH]1)/c1ccccc1`, the figures for the Activity in test [1] and in [2] were 87% and 101%, respectively. `CN(C)c1ncnc2[nH]c(-c3ccccc3)nc12`: the Activity in test [2] was determined as 85%. With `C(=C\c1nc2c(Nc3ccccc3)ncnc2[nH]1)/c1ccccc1`, the Activity was 58% in [1] and 100% in [2]. For `COc1ccc(C(=O)Nc2ncnc3[nH]c(-c4cccc(Cl)c4)nc23)cc1` the same measures were 71% and 102%.

Consider `c1cncc(-c2nc3c(OCC4CCCCC4)ncnc3[nH]2)c1`, for which the Activity in test [2] came to 101%. The same measure, in the same setting: next, `COc1ccc(CNc2ncnc3c2nc(-c2cccc(F)c2)n3C)cc1`: 96%. On the same count and under the same terms, next, `Cn1c(-c2cccc(F)c2)nc2c(NC(=O)C3CC3)ncnc21`: 99%. Consider `C(=C\c1nc2c(NCc3cccnc3)ncnc2[nH]1)/c1ccccc1`, for which the figures for the Activity in [1] and in test [2] were 84% and 96%, respectively.

Consider `O=C(Nc1ncnc2[nH]c(-c3ccccc3)nc12)C1CC1`, for which, in [2], the Activity turned out to be 96%. The same measure, in the same setting: to `Cn1c(-c2cccc(F)c2)nc2c(NCc3ccccc3)ncnc21` belongs 96%.

Regarding `CC(=O)Nc1ncnc2[nH]c(-c3ccccc3)nc12`, the Activity in test [2] is 101%. For `N#Cc1cccc(-c2nc3c(NC(=O)c4ccccc4)ncnc3[nH]2)c1`, the Activity was found to be 69% in test [1] and 102% in test [2].

With `O=C(Nc1ncnc2[nH]c(-c3cccc(Cl)c3)nc12)C1CC1`, the Activity in test [1] turned out to be 17%; in test [2], 100%. For the same compound, the IC50 in test [3] came out at 365 nM. Turning to `c1ccc(-c2nc3c(OC4CCCC4)ncnc3[nH]2)cc1`, the Activity in [2] was found to be 54%. The same measure, in the same setting: to `Cn1c(-c2ccccc2)nc2c(N3CCCC3)ncnc21` belongs 100%; to `COc1ccc(CNc2ncnc3[nH]c(-c4cccnc4)nc23)cc1`, 95%. In the case of `O=C(Nc1ncnc2[nH]c(/C=C/c3ccccc3)nc12)c1ccccc1`, the figures for the Activity in test [1] and in test [2] were 47% and 104%, respectively. The corresponding values for `O=C(Nc1ncnc2[nH]c(-c3ccc4ccccc4c3)nc12)c1ccccc1` are 83% and 100%.

For `O=C(Nc1ncnc2[nH]c(/C=C/c3ccccc3)nc12)C1CC1`, the Activity came out at 55% in test [1] and 100% in test [2].

As for `COc1ccc(CNc2ncnc3[nH]c(-c4ccccc4)nc23)cc1`, in [2], the Activity was 93%. For the compound `CC(=O)Nc1ncnc2[nH]c(-c3ccc4ccccc4c3)nc12`, the Activity in test [1] amounted to 49%; in [2], 98%. In the case of `COc1ccc(C(=O)Nc2ncnc3[nH]c(/C=C/c4ccccc4)nc23)cc1`, the Activity in test [1] is 96%; in test [2] it was 104%. Consider `O=C(Nc1ncnc2[nH]c(-c3ccccc3)nc12)C1CCCCN1` (configuration not stated), for which the Activity in [2] turned out to be 67%.

In the case of `c1ccc(-c2nc3c(NCc4cccnc4)ncnc3[nH]2)cc1`, in test [2], the Activity is 84%.

On to `Cn1c(-c2cccc(F)c2)nc2c(N3CCCC3)ncnc21`, for which, in test [2], the Activity was found to be 100%. Turning to `N#Cc1cccc(-c2nc3c(NC(=O)C4CC4)ncnc3[nH]2)c1`, the Activity in test [1] stood at 30%; in test [2], 103%. This compound registered an IC50 in [3] of 781 nM. `c1cncc(-c2nc3c(OC4CCCC4)ncnc3[nH]2)c1`: the Activity came to 57% in [1] and 83% in test [2].

Consider `COc1ccc(CNc2ncnc3nc(-c4cccc(F)c4)n(C)c23)cc1`, for which, in [2], the Activity amounted to 99%. As for `N#Cc1cccc(-c2nc3c(Nc4ccccc4)ncnc3[nH]2)c1`, the Activity in test [1] is 2%; in test [2] it was 63%.

For orientation: IC50 means the concentration at which inhibition is half-maximal.
